Data set [1] has as its system tumor lung colonization. The note with it: mouse, in vivo; cited from earlier work.
For data set [2], the system named is tumor cells. The note with it: cited from earlier work.
For data set [3], the system named is tumor angiogenesis. The note with it: mice; cited from earlier work.
The test system of data set [4] is platlets and neutrophils. The following applies: cited from earlier work.
A short description of data set [5]: Singlet oxygen production assay (TEMP to TEMPO, EPR). The note with it: 20 μM reactive dye, 50 mM TEMP, DPBS pH 7.4; free dye.
Method: In order to analyze the singlet O2 production by protein RuIphen composite, the conversion of TEMP to TEMPO by singlet O2 was monitored by EPR. Briefly, the light induced production of singlet O2 assay was conducted in a serum vial open to the air with vigorous stirring. The reaction was conducted in 50 mM TEMP with DPBS at pH 7.4. The each of the reactions were normalized to 20 μM reactive dye (RuIphen or Rose Bengal). At each time point, 100 μL of the solution was removed and added to 10 μL of 1M sodium azide to quench the singlet O2 production. Hsp G41CRu was labeled with two different loadings of RuIphen 51% and 82%. […] In order to probe the loss of EPR signal in the free Ru^∥bpy3 control, free Ru^∥bpy3 was illuminated in the presence of purchased TEMPO both in the presence and absence of molecular O2.
Singlet Oxygen Production Assay. In a 3 mL clear glass serum vial (Wheaton), 20 µM ruthenium (either free or attached to protein cage) and 50 mM 2,2,6,6-tetramethyl-4-piperidone (TEMP) final concentration was added to DPBS pH 7.4. […] For the oxygen-free reaction, the serum vials are sealed and degassed under nitrogen The light was quantitated using an Extech Instrument EasyView light meter to be 511, 700 I×. […]
For data set [6] the following is noted: room temperature; cited from earlier work.
The nature of data set [7]: Solubility (saturation). The data set is classed as physicochemical. The following applies: with 1% DMF, aqueous buffer, room temperature, solutions in which the protein cages are stable.

We go through five molecules from patent US20070258889A1, “NOVEL NANOPARTICLES AND USE THEREOF” (Montana State University, priority 2005, published 2007).

In brackets after ≈: the same amount, converted by molar mass.

For the molecule CDPGYIGSRC [peptide 11], the “experimental tumor lung colonization” value in data set [1] is “reduces experimental tumor lung colonization”. The “invasion of basement membranes by tumor cells” value in data set [2] is “effectively blocks invasion of basement membranes by tumor cells”. For the same molecule, the tumor angiogenesis result in data set [3] is reported as “inhibits tumor angiogenesis in mice”. Further, the “toxic effect on platelets and neutrophils” value in data set [4] was “no toxic effect on these cells”.
As to `O=C([O-])c1c(Cl)c(Cl)c(Cl)c(Cl)c1-c1c2cc(I)c(=O)c(I)c-2oc2c(I)c([O-])c(I)cc12.[Na+].[Na+]` [Rose Bengal], the “increase in the amount of TEMPO generated” value in data set [5] came out at 4 fold.
Turning to `CC(=O)Oc1ccccc1C(=O)O` [acetylsalicylic acid], in data set [6], the “solubility (saturation)” value was approximately 18500 µM (≈ 3330 µg/mL).
The solubility is how much of the substance goes into solution per volume. Low readings indicate little dissolved substance, high ones much dissolved substance. `COc1cccc2c1C(=O)c1c(O)c3c(c(O)c1C2=O)C[C@@](O)(C(=O)CO)C[C@@H]3O[C@H]1C[C@H](N)[C@H](O)[C@H](C)O1` [doxorubicin] returned a solubility in data set [7] of approximately 2 µM (≈ 1.09 µg/mL).
In data set [7], `O=C1OC2(c3ccc(O)cc3Oc3cc(O)ccc32)c2ccccc21` [fluorescein] yielded a solubility of approximately 2 µM (≈ 0.665 µg/mL).
